Test results as given in patent US10231980B2, “Cortexolone 17alpha-benzoate for use in the treatment of tumours” (COSMO TECHNOLOGIES LTD., priority 2014, dated 2019).
pIC50: −log10 of the molar value. Read-outs that look alike come from different tables or passages of the source.

Experiments:
[1] = system: MiaPaca-2 pancreatic tumor xenograft; experiment: Human pancreatic tumor xenograft in nude mice; assay type: in vivo
Description: Cortexolone 17α-benzoate and Cyproterone Acetate were separately diluted in DMSO/2-hydroxypropyl β-cyclodextrin (vehicle).
The test was carried out comparing the anti-tumor activity of cortexolone 17α-benzoate at two different dosages (8.0 mg/kg, corresponding approximately at 230 μM, and 40 mg/kg, corresponding approximately at 1150 μM), versus the vehicle (i.e. 0.4% (v/v) tween 80 and 0.5% (w/v) carboxymethylcellulose in normal saline) and versus the comparator Cyproterone Acetate at two different dosages (7.4 mg/kg and 37 mg/kg).
1×10^6 MiaPaca-2 cells suspended in matrigel were sub-cutaneously injected into 6 week old athymic nude mice.
The treatment with the tested compounds, with the vehicle and with the comparative compound, was initiated after the tumor volume has reached 50 mm^3 after transplantation. All compounds were injected 100 μL/mouse of low dose solution (approximately 230 μM) or 100 μL/mouse of high dose solution (approximately 1150 μM) of cortexolone 17α-benzoate, vehicle and Cyproterone Acetate, respectively. Compounds and controls were administered subcutaneously daily for 28 days.
Tumors were measured every 4 days with a digital caliper.
The results are plotted in FIG. 1 as average change in tumor volume relative to the start of treatment. Tumor volume was calculated according to the formula 0.5236(r1)^2(r2) where r1<r2.
Error bars are the SEM for 7 to 10 mice per treatment group. P values were calculated according to the Student's t test.
Cortexolone 17α-valerate-21-propionate and Cyproterone Acetate were separately diluted in DMSO/2-hydroxypropyl β-cyclodextrin (vehicle).
The test was carried out comparing the anti-tumor activity of cortexolone 17α-valerate-21-propionate at two different dosages (approximately 8.6 mg/kg and 43 mg/kg) versus the vehicle (i.e. 0.4% (v/v) tween 80 and 0.5% (w/v) carboxymethylcellulose in normal saline) and versus the comparator Cyproterone Acetate at two different dosages (7.4 mg/kg and 37 mg/kg).
1×10^6 MiaPaca-2 cells suspended in matrigel were subcutaneously injected into 6 week old athymic nude mice.
The treatment with the tested compound, with the vehicle and with the comparative compound was initiated after the tumor has reached a volume of 50 mm^3 after implantation, injecting subcutaneously 100 μL/mouse of low dose solution (approximately 230 μM) or 100 μL/mouse of high dose solution (approximately 1150 μM) of cortexolone 17α-valerate-21-propionate, vehicle and Cyproterone Acetate, respectively. Compounds and controls were administered subcutaneously daily for 28 days. Tumors were measured every 4 days with a digital caliper.
The results are plotted in FIG. 2 as average change in tumor volume relative to the start of treatment. Tumor volume was calculated according to the formula 0.5236(r1)^2(r2) where r1<r2.
Cyproterone acetate (CPA), a well-known anti-androgen, was used as control. Briefly 1×10^6 MiaPaca2 cells suspended in matrigel were subcutaneously (sc) injected into 6 week old male athymic nude mice. Tumors were measured every 4 days with a digital caliper. Tumor volume was calculated according to the formula: 0.5236(r1)2(r2) where r1<r2. Treatment with CB-03-06 and control compounds were initiated after the tumor had reached 50 mm^3. Compounds diluted in DMSO/2-hydroxypropyl b-cyclodextrin (vehicle) were subcutaneously injected daily (100 microL/mouse) at the concentration of 40 mg/Kg daily for 28 consecutive days.

MiaPaca2 (AR low) = experiment: ATP-dependent proliferation assay with 10 nM DHT, pancreatic cancer cells (Examples 3, 4, 7); conditions: for pIC50: Homo sapiens; for TI on Resting PBMC: IC50 resting PBMC / IC50 MiaPaca2; for TI on Stimulated PBMC: IC50 stimulated PBMC / IC50 MiaPaca2
Description: (§1) The experimental method consisted of: • 1. […] After 24 hrs, 10 nM DHT (dihydrotestosterone) with or without anti-androgen compounds, or DMSO vehicle (negative control) was added to the cultures. • 3.
(§2) Data from Experiment 1 were fitted through sigmoidal dose response curves and analyzed using Prizm statistical analysis software. […] The results from 2 sets of experiments follow.
(§3) Data from Experiment 1 was fitted through sigmoidal dose response curves and analyzed using Prizm statistical analysis software.

Panc1 (AR+) = experiment: as above; conditions: for pIC50: Homo sapiens; for TI on Resting PBMC: IC50 resting PBMC / IC50 Panc1; for TI on Stimulated PBMC: IC50 stimulated PBMC / IC50 Panc1
Description: as §1, §2, §3

BxPC3 = experiment: In vitro proliferation, larger panel (Example 14); conditions: for pIC50: Homo sapiens
Description: (§4) Data shown in Table I were fitted through sigmoidal dose response curves and analyzed using Prizm statistical.

MCF7 = experiment: In vitro proliferation / cytotoxic assay on breast cancer cells (Examples 14, 25); conditions: for pIC50: Homo sapiens
Description: as §4
For the cytotoxic assay, cells were seeded in 96-well flat bottom culture plates in media containing charcoal stripped serum. After 24 hours, test compounds were added to the cells. DMSO was used as the vehicle negative control and RU486 as the positive control. After 72 hour incubation, cells were harvested and lysed to determine cell viability using the Cell Titer Glow assay.

stimulated PBMC = experiment: IC50 on stimulated (actively dividing) PBMC; assay type: cell-based, human; conditions: PBMC Stim; Table IV
PC3 = experiment: ATP-dependent cell viability assay (Cell Titer Glo), Example 12; conditions: for pIC50: Homo sapiens
Description: as §4

HT29 = experiment: MTT colorimetric assay on epithelial intestinal cancer cells; assay type: cell-based; conditions: for Therapeutic Index (TI), Resting PBMC: IC50 resting PBMC / IC50 HT29; for Therapeutic Index (TI), Stimulated PBMC: IC50 stimulated PBMC / IC50 HT29
Description: The experiment was performed to test and define anticancer activity in vitro of Cortexolone 17α-benzoate and cortexolone 17α-valerate, 21-propionate on cell lines representatives of epithelial intestinal tumours, namely HT29. The experiment method consisted in: • 1. Monolayer HT-29 cells were plated in: 96-wells plates at the density of 2×10^4 cells/mL. The cells plated were kept at 37° C. in 5% CO2 and left to attach for 24 h. • 2. […] After 72 h of treatment, the MTT colorimetric assay was performed.

[2] = Experiment 1, 0 = higher toxicity in PBMC
[3] = Homo sapiens, HT-29, 72 h, read-out: Inhibition (%) on HT29

In the case of `C[C@]12CCC(=O)C=C1CC[C@@H]1[C@@H]2CC[C@@]2(C)[C@H]1CC[C@]2(OC(=O)c1ccccc1)C(=O)CO` [CB-03-06, cortexolone 17α-benzoate], the “pancreatic tumor size relative to the size when treatment was initiated” value ([1]; Example 5, MiaPaca-2 xenograft, nude mice, SC daily 28 days, high dose of cortexolone 17α-benzoate (40 mg/kg)) was “less than 5 fold”, the “pancreatic tumor size relative to the initial size” value ([1]; Example 22, MiaPaca2 xenograft, male nude mice, 40 mg/Kg SC daily 28 days, treatment period) was “less than 5 fold” and the Median survival ([1]; Example 22, MiaPaca2 xenograft, 40 mg/Kg SC daily 28 days) was 70 days. The “in vivo antitumor activity compared with Cyproterone Acetate” value ([1]; Examples 5 and 6, MiaPaca-2 xenograft) was “antitumor activity higher than Cyproterone Acetate”, the pIC50 (MiaPaca2 (AR low); MIA PaCa-2, 72 h, MiaPaca2, Experiment 1, sigmoidal dose response fit, 10 nM DHT, 3 days) was 4.64 and the pIC50 (MiaPaca2 (AR low); MIA PaCa-2, MiaPaca2, Example 7, Experiment 1) was 4.77. The pIC50 (MiaPaca2 (AR low); MIA PaCa-2, MiaPaca2, Example 7, Experiment 2) was 4.70, the pIC50 (MiaPaca2 (AR low); MIA PaCa-2, MiaPaca2, Experiment 2, nonlinear regression least squares fit, additional experiments) was 4.70 and the “TI on Resting PBMC” value (MiaPaca2 (AR low); [2]) was 6. For the same compound, the “TI on Resting PBMC” value (MiaPaca2 (AR low); Experiment 2) was 4, the “TI on Stimulated PBMC” value (MiaPaca2 (AR low); [2]) was 7 and the “TI on Stimulated PBMC” value (MiaPaca2 (AR low); Experiment 2) was 5. It also gave a pIC50 (Panc1 (AR+); PANC-1, 72 h, Panc1, Experiment 1, sigmoidal dose response fit, 10 nM DHT, 3 days) of 4.52, a pIC50 (Panc1 (AR+); PANC-1, Panc1, Example 7, Experiment 1) of 4.64 and a pIC50 (Panc1 (AR+); PANC-1, Panc1, Example 7, Experiment 2) of 4.55. For the same compound, the pIC50 (Panc1 (AR+); PANC-1, Panc1, Experiment 2, nonlinear regression least squares fit, additional experiments) was 4.55, the “TI on Resting PBMC” value (Panc1 (AR+); [2]) was 4 and the “TI on Resting PBMC” value (Panc1 (AR+); Experiment 2) was 3. The “TI on Stimulated PBMC” value (Panc1 (AR+); [2]) was 5, the “TI on Stimulated PBMC” value (Panc1 (AR+); Experiment 2) was 3 and the “Therapeutic Index = IC50 resting PBMC/IC50 cancer cell” value (BxPC3; BxPC3, Table IV) was 3. The “Therapeutic Index = IC50 stimulated PBMC/IC50 cancer cell” value (BxPC3; BxPC3, Table VII) was 3, the pIC50 (BxPC3; BXPC-3, read-out: In vitro proliferation IC50) was 4.55 and the pIC50 (BxPC3; BXPC-3, read-out: in vitro proliferation IC50) was 4.55. It also gave a pIC50 (MCF7; MCF7, 72 h) of 4.60, a pIC50 (MCF7; MCF7, read-out: In vitro proliferation IC50) of 4.60 and a pIC50 (MCF7; MCF7, read-out: in vitro proliferation IC50) of 4.60. For the same compound, the “Therapeutic Index = IC50 resting PBMC/IC50 cancer cell” value (MCF7; MCF7, Table IV) was 4, the “Therapeutic Index = IC50 stimulated PBMC/IC50 cancer cell” value (MCF7; MCF7, Table VII) was 4 and the “Therapeutic Index = IC50 resting PBMC/IC50 cancer cell” value (stimulated PBMC) was 1. The pIC50 (PC3; PC-3, 72 h) was 4.55, the pIC50 (PC3; PC-3, read-out: In vitro proliferation IC50) was 4.55 and the pIC50 (PC3; PC-3, read-out: in vitro proliferation IC50) was 4.55. For the same compound, the “Therapeutic Index = IC50 resting PBMC/IC50 cancer cell” value (PC3; PC3, Table IV) was 3, the “Therapeutic Index = IC50 stimulated PBMC/IC50 cancer cell” value (PC3; PC3, Table VII) was 3 and the “Therapeutic Index = IC50 resting PBMC/IC50 cancer cell” value (HT29; HT29, Table IV) was 6. For the same compound, the “Therapeutic Index = IC50 stimulated PBMC/IC50 cancer cell” value (HT29; HT29, Table VII) was 6, the pIC50 (HT29; Homo sapiens, HT-29, 72 h, read-out: IC50 Calculated) was 4.80 and the inhibition at 0.8 µM (HT29; [3]) was -1.55%. For the same compound, the inhibition at 4 µM (HT29; [3]) was 20.4%, the inhibition at 20 µM (HT29; [3]) was 53.6% and the inhibition at 100 µM (HT29; [3]) was 92.2%. It also gave an inhibition at 500 µM (HT29; [3]) of 92.3%, a pIC50 (HT29; Homo sapiens, HT-29, read-out: In vitro proliferation IC50) of 4.80 and a pIC50 (HT29; Homo sapiens, HT-29, read-out: in vitro proliferation IC50) of 4.89. For the same compound, the “Therapeutic Index (TI), Resting PBMC” value (HT29; Experiment 1) was 6, the “Therapeutic Index (TI), Resting PBMC” value (HT29; Experiment 2) was 5 and the “Therapeutic Index (TI), Stimulated PBMC” value (HT29; Experiment 1) was 7. For the same compound, the “Therapeutic Index (TI), Stimulated PBMC” value (HT29; Experiment 2) was 6.
